# In patent US8048880B2, “Treatment of cardiovascular disease and dyslipidemia using secretory phospholipase A2 (SPLA2) inhibitors and SPLA2 inhibitor combination therapies” (Anthera Pharmaceuticals, Inc., priority 2007, dated 2011):
# How the values were obtained:
# [1] = tested on: human subjects with CVD, specifically stable coronary artery disease; experiment: Serum lipid levels in humans, A-002 twice a day for eight weeks (Example 4); type: in vivo
# Protocol: (§1) 204 human subjects from the United States with CVD, specifically stable coronary artery disease, were randomized to receive placebo or A-002 via oral administration twice a day over an eight week administration period at dosages of 50 mg, 100 mg, 250 mg, or 500 mg. Levels of various lipids and inflammatory markers were measured at the outset of the trial and at the end of weeks four and/or eight. For data sets with a normal distribution, mean levels of lipids or inflammatory markers were analyzed. For data sets with non-normal distribution, median levels were analyzed. […] In addition, administration of A-002 decreased median levels of CRP (Table 11).
# The combined effect of A-002 and statin administration on LDL levels was tested in a population of 332 subjects. This population consisted of the original 204 United States subjects, plus an additional 128 subjects from the Ukraine with stable CAD that received placebo or A-002 based according to the same protocol as the United States subjects. […] Similarly, A-002 decreased LDL levels in subjects receiving a variety of non-statin compounds used in the treatment of CVD, including ezetimibe, AEGR-733/ezetimibe, colesevelam hydrochloride (WelChol®), MK-0524A (Cordaptive®), lisinopril/MC-1 antibody (MC-4232), and Angiotensin Receptor Blocker (ARB)/MC-1 (MC-4262).
# ApoE−/− mice [2] = experiment: Atherosclerotic plaque coverage of the aorta in ApoE−/− mice (Example 1); type: in vivo; settings: at 16 weeks
# Protocol: Male ApoE^−/− mice were fed a high fat diet (21% fat, 0.15% cholesterol, 19.5% casein) ad libitum for two weeks in order to acclimate to the diet. Plasma cholesterol levels and body weight were measured in order to obtain baseline levels, and mice were randomized into three groups of 20 mice based on these measurements. After the acclimation period, mice remained on the high fat diet and were administered A-002 (30 mg/kg or 90 mg/kg) or vehicle only (5% acacia) twice a day for 16 weeks by oral gavage.
# At the end of the 16th week, mice were sacrificed and plasma samples, heart tissue, and aortas from the heart to approximately 3 mm distal to the iliac bifurcation were collected. Aortas were placed on microscope slides and stained with Oil Red O for scanning and image analysis of atherosclerotic lesion size. Vessel images were captured using a Microtek Scanmaker 9600XL scanner (Microtek, Carson, Calif.) and Photoshop 6.0 software (Adobe Systems Inc., San Jose, Calif.). Atherosclerotic plaque coverage was quantified for the entire length of the vessel including the arch using Image-Pro Plus software. Vessels were also analyzed for plaque coverage in the descending abdominal aorta, starting in the region of the first intercostal branches to the iliac bifurcation (not including the arch). Plaque content was expressed as a percent of the aortic surface. […]
# ApoE−/− mice [3] = experiment: Plasma total cholesterol and HDL levels in ApoE−/− mice, A-002 and/or statin (Example 3); type: in vivo; settings: alone or plus 0.02 g/kg pravastatin, 12 weeks
# Protocol: Body weight, plasma total cholesterol, and plasma HDL levels were measured for six groups of twelve ApoE^−/− mice. The mice were then placed on a high fat diet for twelve weeks to allow for formation of significant fatty atherosclerotic plaques. The high fat diet was a modified version of the Western diet (TD.88137, Harlan Teklad, Madison, Wis.) consisting of casein (195 g/kg), DL-methionine (3 g/kg), sucrose (341.44 g/kg), corn starch (150 g/kg), anhydrous milkfat (210 g/kg), cholesterol (1.5 g/kg), cellulose (50 g/kg), mineral mix AlN-76 (Teklad; 35 g/kg), calcium carbonate (4 g/kg), vitamin mix (Teklad #40060; 10 g/kg), ethyoxyquin (antioxidant, 0.04 g/kg), and either 0.0156 g/kg (“low dose”) A-002 (Group A), 1.56 g/kg (“high dose”) A-002 (Group B), 0.02 g/kg pravastatin (Group C), low dose A-002 plus 0.02 g/kg pravastatin (Group D), high dose A-002 plus 0.02 g/kg pravastatin (Group E), or vehicle only (Group F). Mice were administered diets A-F in a blinded manner, and food was provided ad libitum. The diet was initially prepared based on the assumption that each mouse weighed 22.5 g and ate 4.5 g/day. Based on body weight and food consumption, the diet was modified over the 12 week course of treatment to adjust for a body weight of 26 g and a food intake of 2.5 g/day. The dosages of A-002 were selected to cover a range of 100-fold based on pharmacokinetics in ApoE^−/− mice as well as toxicology and previously observed efficacy in this model.
# Plasma total cholesterol and HDL levels were measured. Mean levels of total cholesterol were decreased in mice administered A-002 alone or in combination with statin (Table 3, FIG. 6). […] Mean levels of HDL were increased in mice administered A-002 at either dosage (Table 4). This increase was greater in mice administered high dose A-002 plus statin than in mice administered high dose A-002 or statin alone (Table 4 compare Group E vs. Groups B and C; FIG. 7).
# CRP = experiment: Serum CRP concentration in humans, A-002 twice a day (Example 4); type: in vivo, human; settings: week 8
# Protocol: as §1
# Serum TG, CRP, and IL-6 levels were measured at eight weeks in 86 subjects from the ITT population diagnosed with metabolic syndrome.
# [4] = diabetic subpopulation, week 8, A-002 twice a day
# [5] = ezetimibe subpopulation (ezetimibe 10 mg), week 8, A-002 twice a day
# [6] = metabolic syndrome subpopulation, week 8, A-002 twice a day
# [7] = non-statin subpopulation with baseline serum LDL greater than or equal to 72 mg/dl, week 8, A-002 twice a day
# [8] = non-statin subpopulation, week 4, A-002 twice a day
# [9] = non-statin subpopulation, week 8, A-002 twice a day
# [10] = serum, ITT population, week 8, A-002 50-500 mg twice a day
# [11] = serum, ITT population, week 8, A-002 twice a day
# [12] = statin subpopulation (US + Ukraine), week 4, A-002 twice a day
# [13] = statin subpopulation (US + Ukraine), week 8, A-002 twice a day
# [14] = statin subpopulation (US), week 8, A-002 twice a day
# [15] = statin subpopulation with baseline serum LDL greater than or equal to 72 mg/dl, week 8, A-002 twice a day
# [16] = subpopulation with baseline serum LDL greater than or equal to 72 mg/dl, week 8, A-002 twice a day
# [17] = summary Table 20, A-002 alone, statin alone or A-002 plus statin
# [18] = high dose A-002 (1.56 g/kg diet)
# [19] = low dose A-002 (0.0156 g/kg diet)
# [20] = metabolic syndrome subpopulation
structure (smiles),measurement,setting,value
"CCc1c(C(=O)C(N)=O)c2c(OCC(=O)OC)cccc2n1Cc1ccccc1 [A-002, [[3-(2-Amino-1,2-dioxoethyl)-2-ethyl-1-(phenylmethyl)-1H-indol-4-yl]oxy]acetic acid methyl ester]",reduction (decrease) of mean serum small LDL particle levels,"[1]; at eight weeks, United States population, text restating Tables 14 and 17",3.25%
same,decrease of mean serum LDL levels,"[1]; at eight weeks, United States subjects with baseline LDL of 72 mg/dl or greater, text restating Tables 15 and 19",8.23%
same,decrease of mean serum LDL levels,"[1]; at week eight, combined United States and Ukraine populations, Tables 16 and 18",4.22%
same,decrease of mean serum LDL levels,"[1]; at week four, combined United States and Ukraine populations, Tables 16 and 18",6.93%
same,% change vs. baseline (mean [LDL]),[1]; [4],−16.64%
same,Change in mean [LDL] vs. baseline,[1]; [4],-10.6 mg/dL
same,% change vs. baseline (mean [LDL]),[1]; [5],−17.8%
same,Change in mean [LDL] vs. baseline,[1]; [5],-15.4 mg/dL
same,% change vs. baseline (median [TG]),[1]; [6],−13.99%
same,Change in median [TG] vs. baseline,[1]; [6],-24.0 mg/dL
same,% change vs. baseline (mean [LDL]),[1]; [7],−8.23%
same,Change in mean [LDL] vs. baseline,[1]; [7],-9.2 mg/dL
same,% change vs. baseline (mean [LDL]),[1]; [8],−6.93%
same,Change in mean [LDL] vs. baseline,[1]; [8],-8.7 mg/dL
same,% change vs. baseline (mean [LDL]),[1]; [9],−4.22%
same,% change vs. baseline (mean [small LDL particle]),[1]; [9],−3.25%
same,Change in mean [LDL] vs. baseline,[1]; [9],-5.3 mg/dL
same,Change in mean [small LDL particle] vs. baseline,[1]; [9],-24.0 nmol/L
same,% change vs. baseline (mean [LDL]),[1]; [10],−10.68%
same,Change in mean [LDL] vs. baseline,[1]; [10],-8.2 mg/dL
same,% change vs. baseline (mean [LDL particle]),[1]; [11],−7.13%
same,% change vs. baseline (mean [TG]),[1]; [11],−6.67%
same,% change vs. baseline (mean [small LDL particle]),[1]; [11],−8.33%
same,% change vs. baseline (mean [total cholesterol]),[1]; [11],−8.16%
same,Change in mean [LDL particle] vs. baseline,[1]; [11],-73.6 nmol/L
same,Change in mean [TG] vs. baseline,[1]; [11],-10.1 mg/dL
same,Change in mean [small LDL particle] vs. baseline,[1]; [11],-61.3 nmol/L
same,Change in mean [total cholesterol] vs. baseline,[1]; [11],-12.8 mg/dL
same,% change vs. baseline (mean [LDL]),[1]; [12],−14.04%
same,Change in mean [LDL] vs. baseline,[1]; [12],-10.8 mg/dL
same,% change vs. baseline (mean [LDL]),[1]; [13],−12.48%
same,Change in mean [LDL] vs. baseline,[1]; [13],-9.6 mg/dL
same,% change vs. baseline (mean [small LDL particle]),[1]; [14],−9.00%
same,Change in mean [small LDL particle] vs. baseline,[1]; [14],-66.2 nmol/L
same,% change vs. baseline (mean [LDL]),[1]; [15],−16.27%
same,Change in mean [LDL] vs. baseline,[1]; [15],-15.0 mg/dL
same,LDL levels in subjects receiving non-statin compounds used in the treatment of CVD,"[1]; subjects on ezetimibe, AEGR-733/ezetimibe, colesevelam hydrochloride, MK-0524A, MC-4232 or MC-4262",decreased
same,% change vs. baseline (mean [LDL]),[1]; [16],−14.68%
same,Change in mean [LDL] vs. baseline,[1]; [16],-14.0 mg/dL
same,Observed change following administration: Mean serum [LDL] at week 4,[1]; [17],−6.93%
same,Observed change following administration: Mean serum [LDL] at week 8,[1]; [17],−4.22%
same,Observed change following administration: Mean serum [LDL] in ≧72 mg/dl subpopulation at week 8,[1]; [17],−8.23%
same,Observed change following administration: Mean serum [small LDL particle] at week 8,[1]; [17],−3.25%
same,Observed change following administration: Mean serum [LDL] at week 8,"[1]; summary Table 22, A-002 alone, ezetimibe alone or A-002 plus ezetimibe",−4.22%
same,plaque coverage in aortic tissue,ApoE−/− mice [2]; 30 mg/kg A-002 twice a day,6.3%
same,plaque coverage in aortic tissue,ApoE−/− mice [2]; 90 mg/kg A-002 twice a day,6.8%
same,Mean HDL concentration,ApoE−/− mice [3]; [18],17.167 mg/dL
same,Mean total cholesterol concentration,ApoE−/− mice [3]; [18],1301.750 mg/dL
same,Mean HDL concentration,ApoE−/− mice [3]; [19],21.000 mg/dL
same,Mean total cholesterol concentration,ApoE−/− mice [3]; [19],1355.545 mg/dL
same,% change vs. baseline (median [CRP]),CRP; [20],−12.50%
same,Change in median [CRP] vs. baseline,CRP; [20],-0.3 mg/L
same,% change vs. baseline (median [CRP]),"CRP; serum, ITT population",−13.33%
same,Change in median [CRP] vs. baseline,"CRP; serum, ITT population",-0.20 mg/L
